Converted amounts (≈) assume the structure as drawn.
Tests used:
Cryptococcus neoformans [1] = conditions: reference value; organism not given; cited from earlier work
Escherichia coli = assay: MIC in liquid culture, E. coli; assay type: cell-based; conditions: for MIC, E. coli: Table 1; for antimicrobial effect: strain S17, paper disk and MIC studies
Method: (§1) To determine the antimicrobial potential of the two generations (G1—based on SbPh4-core, and G2—based on SbMe3-core) of newly synthesized Sb(V) cyanoximates, several representative compounds were first selected and their antimicrobial properties tested by using disk diffusion assays, The minimal inhibitory concentrations (MIC) of selected compounds were also determined in liquid cultures. Three bacterial and two fungal pathogens were used as target microorganisms. Bacterial pathogens included Gram-negative Pseudomonas aeruginosa and Gram-positive Staphylococcus aureus, representing the ESKAPE group of human pathogens known for their high virulence and antibiotic resistance.
(§2) MIC of the 3rd generation compounds, as well as complete MIC measurements for the 2nd generation Sb(V) compounds, are determined. A dilution assay in a 96-well-plate format, the gold standard for measuring MICS recommended by the Clinical Laboratory Standards Institute (CLSI), is utilized. Prior to plate inoculation, bacterial cultures of P. aeruginosa PAO1, S. aureus NRS70, E. foecium CC17, and E. coli S17 are grown in Mueller Hinton Broth (MHB) to middle log phase as determined by the individual growth curves and diluted to obtain absorbance at 600 nm of 0.1. These normalized cultures are diluted 1:100 using MHB and inoculated into the fresh medium with serially diluted Sb(V) compounds in 96-well plates. The plates are incubated for 24 h at 37° C. For fungal pathogens, cultures of Cryptococcus neoformans strain H99 and Candida albicans strain SC5314 are grown to stationary phase in YPD medium for 18 h at 30° C. Following incubation, fungal cells are centrifuged, washed three times with PBS, and then counted with trypan blue exclusion. Each compound is screened using a microdilution assay with 0.5×10^3 fungal cells in RPMI-MOPS medium at 35° C. for 48 h. Following incubations for bacterial or fungal pathogens, the OD600 is measured using a Biotek Synergy HT microtiter plate reader ([…].). The MIC is defined as the lowest concentration that inhibits growth. An aliquot from the clear wells from the MIC assay is plated on agar to determine minimum bactericidal concentration (MBC) or minimum fungicidal concentration (MFC). Each experiment is based on at least three biological replicates and repeated for consistency. The MIC and MBC for each compound is compared to those obtained for clinically applied antibiotics/antifungals. For bacterial pathogens, the corresponding antibiotics, such as tobramycin (P. aeruginosa), trimethoprim (S. aureus), gentamicin (E. coli) and ampicillin (E. foecium), are used. For fungal pathogens, the data is compared to the antifungal drugs Amphotericin B and Caspofungin for C. neoformans and C. albicans, respectively, by using the CLSI method.
(§3) Two different types of antimicrobial studies were performed: 1) paper disk studies during growth on solid media; and 2) MIC determination during growth in liquid media. […] Antifungal disk assays concluded that Sb(Ph)4 (ECO) was effective against Cryptococcus neoformans and Candida albicans. […] For MIC assays, Sb(Ph)4 (MCO), the Sb(V) cyanoximate, was tested, along with the free cyanoximes H(MCO), H(ECO), and Na[H(ACO)2].
(§4) MIC assays: The MIC assay protocol utilized for determination of the effects of various organoantimony(V) cyanoximate compounds in various bacteria is shown in FIG. 16. Each solubilized in DMSO at 5 mg/ml, starting concentration is 100 μg/ml. Error bars represent standard error of the mean (if none, the values were identical in each experiment). Untested compounds have no bar. Bars reaching 100 μg/ml were not considered to have antifungal activity.

Cryptococcus neoformans [2] = assay: Antifungal disk diffusion assay, C. neoformans; assay type: cell-based; conditions: solid compound on paper disk
Method: (§5) To determine the antifungal properties of the two groups of Sb(V) cyanoximaes, Cryptococcus neoformans and Candida albicans, both of which are deadly human pathogens, were tested.
(§6) First, solid state powder compounds were deposited on paper disks and tested against two fungi: Cryptococcus neoformans and Candia albicans. Each experiment was conducted in triplicate with each compound at each concentration of deposited solid compound. The control was a blank paper (100% cotton disk).
(§7) Disk diffusion assays: No inhibition of Cryptococcus neoformans or Candida albicans for the following organoantimony(V) cyanoximate compounds at any concentration (S, ×2, ×4): H(ACO), H(ECO), H(MCO).

[3] = tested on: Staphylococcus aureus MRSA; assay: Broth dilution assay, S. aureus MRSA; assay type: cell-based; conditions: multi-drug resistant strain, FIG. 20
Source text: As shown in FIGS. 20-21, compounds containing Sb display higher bactericidal activity against Gram positive Staphylococcus aureus (FIG. 20) than Gram negative E. coli (FIG. 21). […] In addition, 25-40% reduction of growth was also observed for Sb(Ph4)Br, Sb(Ph4)ECO, Sb(Ph4)ACO, and Sb(Ph4)TCO against Gram negative E. coli (FIG. 21).

Candida albicans [4] = assay: Antifungal disk diffusion assay, C. albicans; assay type: cell-based; conditions: solid compound on paper disk
Method: as §5, §6, §7

Staphylococcus aureus = assay: MIC in liquid culture, S. aureus; assay type: cell-based; conditions: for antimicrobial effect: Methicillin-resistant strain NRS70, paper disk and MIC studies; for MIC, S. aureus: Table 1
Method: as §1, §2, §3, §4

Cryptococcus neoformans [5] = assay: MIC assay, C. neoformans; assay type: cell-based; conditions: Table 1
Method: as §5, §2
(§8) Second, the compounds were dissolved in DMSO to […], and their minimal inhibitory concentration (MIC) was determined against C. neoformans and C. albicans. Starting concentration used was 100 μg/ml, and then diluted 1:2.
as §4

Candida albicans [6] = assay: MIC assay, C. albicans; assay type: cell-based; conditions: Table 1
Method: as §5, §2, §8, §4

Pseudomonas aeruginosa = assay: MIC in liquid culture, P. aeruginosa; assay type: cell-based; conditions: for MIC, P. aeruginosa: Table 1; for antimicrobial effect: strain PAO1, paper disk and MIC studies
Method: as §1, §2, §3, §4

Structure (SMILES): C[C@@H]1[C@H](O)[C@@H](C)/C=C/C=C/C=C/C=C/C=C/C=C/C=C/[C@H](O[C@@H]2O[C@H](C)[C@@H](O)[C@H](N)[C@@H]2O)C[C@@H]2O[C@](O)(C[C@@H](O)C[C@@H](O)[C@H](O)CC[C@@H](O)C[C@@H](O)CC(=O)O[C@H]1C)C[C@H](O)[C@H]2C(=O)O [Amphotericin B]
- MIC concentration (for reference) (Cryptococcus neoformans [1]): 0.5 µg/mL (≈ 0.541 µM)

Structure (SMILES): N#CC(=N[O][Sb]([c]1ccccc1)([c]1ccccc1)([c]1ccccc1)[c]1ccccc1)C(N)=O [SbPh4ACO]
- MIC, E. coli (Escherichia coli): 100 µg/mL
- antimicrobial effect (Escherichia coli): significant antimicrobial effect
- antifungal activity / zone of inhibition in disk assay (Cryptococcus neoformans [2]): effective
- MIC (minimum inhibitory concentrations) [3]: 100 µg/mL
- bactericidal activity [3]: significant bactericidal activity
- antifungal activity / zone of inhibition in disk assay (Candida albicans [4]): only effective at inhibition of Cryptococcus neoformans
- antimicrobial effect (Staphylococcus aureus): significant antimicrobial effect
- MIC, S. aureus (Staphylococcus aureus): 100 µg/mL
- MIC, C. neoformans (Cryptococcus neoformans [5]): 18.8 µg/mL
- MIC, C. albicans (Candida albicans [6]): 15.6 µg/mL
- MIC, P. aeruginosa (Pseudomonas aeruginosa): 100 µg/mL
- antimicrobial effect (Pseudomonas aeruginosa): significant antimicrobial effect

Structure (SMILES): CCOC(=O)C(C#N)=N[O][Sb]([c]1ccccc1)([c]1ccccc1)([c]1ccccc1)[c]1ccccc1 [SbPh4ECO]
- MIC, E. coli (Escherichia coli): >200 µg/mL
- antimicrobial effect (Escherichia coli): significant antimicrobial effect
- antifungal activity / zone of inhibition in disk assay (Cryptococcus neoformans [2]): effective
- bactericidal activity [3]: significant bactericidal activity
- antifungal activity / zone of inhibition in disk assay (Candida albicans [4]): effective
- antimicrobial effect (Staphylococcus aureus): significant antimicrobial effect
- MIC, S. aureus (Staphylococcus aureus): 150 µg/mL
- MIC, C. neoformans (Cryptococcus neoformans [5]): 10.9 µg/mL
- MIC, C. albicans (Candida albicans [6]): 31.2 µg/mL
- MIC, P. aeruginosa (Pseudomonas aeruginosa): 150 µg/mL
- antimicrobial effect (Pseudomonas aeruginosa): significant antimicrobial effect
